Laboratory results reported in publication PMC9395446, “First-in-human phase 1/1b study to evaluate sitravatinib in patients with advanced solid tumors” (Investigational New Drugs, 2022).

Test: Safety in phase 1/1b study (DLTs, TRAEs, TEAEs; CTCAE v4.03)
Assay type: in vivo, human
Excerpt: Safety assessments included evaluation of DLTs, AEs, physical examinations, vital sign measurements, electrocardiogram recordings and laboratory tests.
A DLT was defined as a grade ≥ 4 hematologic abnormality lasting ≥ 4 days; grade 3 thrombocytopenia with clinically significant bleeding; febrile neutropenia; clinically significant grade ≥ 3 non-hematologic AEs not related to underlying malignancy; intolerable grade 2 AEs; or toxicity resulting in an inability to deliver 80% of the dose during the first treatment cycle.
The safety population included all patients who received ≥ 1 dose of sitravatinib. […] The PK evaluable population included all patients with sufficient concentration-time data for PK parameter evaluation. The modified intent-to-treat (mITT) population included all phase 1b patients who received ≥ 1 dose of study drug.

With `COCCNCc1ccc(-c2cc3nccc(Oc4ccc(NC(=O)C5(C(=O)Nc6ccc(F)cc6)CC5)cc4F)c3s2)nc1` [sitravatinib, Sitravatinib] the “Hypophosphatemia TEAE, grade ≥3” value (150 mg phase 1b) was 9 (9.1) n (%), the “Hypothyroidism TEAE, any grade” value (150 mg phase 1b) was 22 (22.2) n (%) and the “Hypothyroidism TEAE, grade ≥3” value (150 mg phase 1b) was 0 n (%). For the same compound, the “Hypothyroidism TRAE, any grade” value (150 mg phase 1b) was 16 (16.2) n (%), the “Hypothyroidism TRAE, grade ≥3” value (150 mg phase 1b) was 0 n (%) and the “Infections and infestations TEAE, any grade” value (150 mg phase 1b) was 40 (40.4) n (%). For the same compound, the “Infections and infestations TEAE, grade ≥3” value (150 mg phase 1b) was 12 (12.1) n (%), the “Injury, poisoning, procedural complications TEAE, any grade” value (150 mg phase 1b) was 20 (20.2) n (%) and the “Injury, poisoning, procedural complications TEAE, grade ≥3” value (150 mg phase 1b) was 2 (2.0) n (%). For the same compound, the “Investigations TEAE, any grade” value (150 mg phase 1b) was 66 (66.7) n (%), the “Investigations TEAE, grade ≥3” value (150 mg phase 1b) was 23 (23.2) n (%) and the “Lipase increased TEAE, any grade” value (150 mg phase 1b) was 15 (15.2) n (%). The “Lipase increased TEAE, grade ≥3” value (150 mg phase 1b) was 10 (10.1) n (%), the “Metabolism and nutrition disorders TEAE, any grade” value (150 mg phase 1b) was 71 (71.7) n (%) and the “Metabolism and nutrition disorders TEAE, grade ≥3” value (150 mg phase 1b) was 26 (26.3) n (%). For the same compound, the “Musculoskeletal and connective tissue disorders TEAE, any grade” value (150 mg phase 1b) was 56 (56.6) n (%), the “Musculoskeletal and connective tissue disorders TEAE, grade ≥3” value (150 mg phase 1b) was 8 (8.1) n (%) and the “Nausea TEAE, any grade” value (150 mg phase 1b) was 49 (49.5) n (%). For the same compound, the “Nausea TEAE, grade ≥3” value (150 mg phase 1b) was 7 (7.1) n (%), the “Nausea TRAE, any grade” value (150 mg phase 1b) was 38 (38.4) n (%) and the “Nausea TRAE, grade ≥3” value (150 mg phase 1b) was 5 (5.1) n (%). For the same compound, the “Neoplasms benign, malignant, unspecified TEAE, any grade” value (150 mg phase 1b) was 10 (10.1) n (%), the “Neoplasms benign, malignant, unspecified TEAE, grade ≥3” value (150 mg phase 1b) was 8 (8.1) n (%) and the “Nervous system disorders TEAE, any grade” value (150 mg phase 1b) was 50 (50.5) n (%). For the same compound, the “Nervous system disorders TEAE, grade ≥3” value (150 mg phase 1b) was 5 (5.1) n (%), the “PPE syndrome TEAE, any grade” value (150 mg phase 1b) was 23 (23.2) n (%) and the “PPE syndrome TEAE, grade ≥3” value (150 mg phase 1b) was 4 (4.0) n (%). For the same compound, the “PPE syndrome TRAE, any grade” value (150 mg phase 1b) was 22 (22.2) n (%), the “PPE syndrome TRAE, grade ≥3” value (150 mg phase 1b) was 4 (4.0) n (%) and the “Pain in extremity TEAE, any grade” value (150 mg phase 1b) was 15 (15.2) n (%). For the same compound, the “Pain in extremity TEAE, grade ≥3” value (150 mg phase 1b) was 2 (2.0) n (%), the “Proteinuria TEAE, any grade” value (150 mg phase 1b) was 11 (11.1) n (%) and the “Proteinuria TEAE, grade ≥3” value (150 mg phase 1b) was 0 n (%). The “Proteinuria TRAE, any grade” value (150 mg phase 1b) was 9 (9.1) n (%), the “Proteinuria TRAE, grade ≥3” value (150 mg phase 1b) was 0 n (%) and the “Psychiatric disorders TEAE, any grade” value (150 mg phase 1b) was 25 (25.3) n (%). The “Psychiatric disorders TEAE, grade ≥3” value (150 mg phase 1b) was 1 (1.0) n (%), the “Rash TEAE, any grade” value (150 mg phase 1b) was 12 (12.1) n (%) and the “Rash TEAE, grade ≥3” value (150 mg phase 1b) was 0 n (%). The “Rash TRAE, any grade” value (150 mg phase 1b) was 11 (11.1) n (%), the “Rash TRAE, grade ≥3” value (150 mg phase 1b) was 0 n (%) and the “Renal and urinary disorders TEAE, any grade” value (150 mg phase 1b) was 23 (23.2) n (%). The “Renal and urinary disorders TEAE, grade ≥3” value (150 mg phase 1b) was 1 (1.0) n (%), the “Respiratory, thoracic and mediastinal disorders TEAE, any grade” value (150 mg phase 1b) was 65 (65.7) n (%) and the “Respiratory, thoracic and mediastinal disorders TEAE, grade ≥3” value (150 mg phase 1b) was 14 (14.1) n (%). For the same compound, the “Serious TEAE” value (150 mg phase 1b) was 49 (49.5) n (%), the “Serious TRAE” value (150 mg phase 1b) was 22 (22.2) n (%) and the “Skin and subcutaneous tissue disorders TEAE, any grade” value (150 mg phase 1b) was 55 (55.6) n (%). The “Skin and subcutaneous tissue disorders TEAE, grade ≥3” value (150 mg phase 1b) was 6 (6.1) n (%), the “Stomatitis TEAE, any grade” value (150 mg phase 1b) was 14 (14.1) n (%) and the “Stomatitis TEAE, grade ≥3” value (150 mg phase 1b) was 1 (1.0) n (%). The “Stomatitis TRAE, any grade” value (150 mg phase 1b) was 14 (14.1) n (%), the “Stomatitis TRAE, grade ≥3” value (150 mg phase 1b) was 1 (1.0) n (%) and the “TEAE grade ≥3” value (150 mg phase 1b) was 80 (80.8) n (%). The “TEAE leading to death” value (150 mg phase 1b) was 10 (10.1) n (%), the “TEAE leading to discontinuation” value (150 mg phase 1b) was 24 (24.2) n (%) and the “TEAE leading to treatment modification” value (150 mg phase 1b) was 74 (74.7) n (%). For the same compound, the “TRAE grade ≥3” value (150 mg phase 1b) was 61 (61.6) n (%), the “TRAE leading to death” value (150 mg phase 1b) was 1 (1.0) n (%) and the “TRAE leading to discontinuation” value (150 mg phase 1b) was 17 (17.2) n (%). The “TRAE leading to treatment modification” value (150 mg phase 1b) was 66 (66.7) n (%), the “UTI TEAE, any grade” value (150 mg phase 1b) was 14 (14.1) n (%) and the “UTI TEAE, grade ≥3” value (150 mg phase 1b) was 3 (3.0) n (%). For the same compound, the “Vascular disorders TEAE, any grade” value (150 mg phase 1b) was 61 (61.6) n (%), the “Vascular disorders TEAE, grade ≥3” value (150 mg phase 1b) was 32 (32.3) n (%) and the “Vomiting TEAE, any grade” value (150 mg phase 1b) was 38 (38.4) n (%). The “Vomiting TEAE, grade ≥3” value (150 mg phase 1b) was 10 (10.1) n (%), the “Vomiting TRAE, any grade” value (150 mg phase 1b) was 31 (31.3) n (%) and the “Vomiting TRAE, grade ≥3” value (150 mg phase 1b) was 5 (5.1) n (%). The “Weight decreased TEAE, any grade” value (150 mg phase 1b) was 28 (28.3) n (%), the “Weight decreased TEAE, grade ≥3” value (150 mg phase 1b) was 3 (3.0) n (%) and the “Weight decreased TRAE, any grade” value (150 mg phase 1b) was 18 (18.2) n (%). For the same compound, the “Weight decreased TRAE, grade ≥3” value (150 mg phase 1b) was 2 (2.0) n (%), the “ALT increased TEAE, any grade” value (Overall) was 46 (23.8) n (%) and the “ALT increased TEAE, grade ≥3” value (Overall) was 5 (2.6) n (%). For the same compound, the “ALT increased TRAE, any grade” value (Overall) was 35 (18.1) n (%), the “ALT increased TRAE, grade ≥3” value (Overall) was 3 (1.6) n (%) and the “AST increased TEAE, any grade” value (Overall) was 47 (24.4) n (%). For the same compound, the “AST increased TEAE, grade ≥3” value (Overall) was 4 (2.1) n (%).
